This series can be described thus: clinical food-effect pharmacokinetic study in healthy human men, fasted vs high-fat breakfast. The conditions noted are these: male, in vivo, po, 40 mg; for Tmax / Cmax / half-life: single oral 40 mg; for AUC(0-inf): single oral 40 mg dose of hot melt extrusion composition; for half-life: read-out: Apparent Terminal t1/2 (converted). On the procedure:
The pharmacokinetic profile of this composition of suvorexant was also tested by administering a single dose of the formulation to healthy human men. […] In the second period of this clinical study, the 7 subjects in each treatment groups were crossed over and received the other treatment.
The fed/fasted GMR and 90% confidence intervals for AUC0-inf were 0.98 (0.90, 1.07).

Where two headings read alike, the source gives them in different places.

For the molecule `Cc1ccc(-n2nccn2)c(C(=O)N2CCN(c3nc4cc(Cl)ccc4o3)CC[C@H]2C)c1` [Suvorexant, 5-chloro-2-{(5R)-5-methyl-4-[5-methyl-2-(2H-1,2,3-triazol-2-yl)benzoyl]-1,4-diazepan-1-yl}-1,3-benzoxazole], the Tmax was determined as 1.5 h (Tmax (Suvorexant Fed/Suvorexant Fasted), fed/fasted); 2 h (Fasted, read-out: Tmax); 3 h (Fed (high-fat breakfast), read-out: Tmax). Besides, the AUC(0-inf) is, setting by setting: (Fasted (8-hour fast)) 13.2 µM·h; (Fed (standard high-fat breakfast)) 13 µM·h. Besides, the Cmax (Fasted) turned out to be 1000 nM and the Cmax (Fed (high-fat breakfast)) came to 1100 nM. Moreover, the half-life by setting is: (Fasted) 10.9 h; (Fed (high-fat breakfast)) 11.8 h.

For the origin of these results see US12599610B2, “Solid dosage formulations of an orexin receptor antagonist” (Merck Sharp & Dohme LLC, priority 2012, dated 2026).
